According to PubChem BioAssay AID248 (DTP/NCI, 2004):
Several values for one entry are separate records, joined by “and”; a condition that tells them apart may be missing. Equal values may be shown once. Inconclusive results and toxic doses are left out.

System: L1210 leukemia ip in BDF1 mice, survival T/C
Test: NCI In Vivo Anticancer Drug Screen. Data for tumor model L1210 Leukemia (intraperitoneal) in B6D2F1 (BDF1) mice
Details: endpoint: mean survival time, higher = longer survival
Outline: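 Antitumor effect is assessed in tumor-bearing animals. Survival in the compound arm is compared with a vehicle-dosed control arm and expressed as their quotient.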

[1] = dose: 20.0 mg/kg/injection, schedule: Q01DX009 (ip), vehicle: Klucel (hydroxypropylcellulose) (HPC)
[2] = dose: 50.0 mg/kg/injection, schedule: Q01DX001 (ip), vehicle: carboxymethylcellulose (CMC)
[3] = dose: 100.0 mg/kg/injection, schedule: Q01DX001 (ip), vehicle: carboxymethylcellulose (CMC)
[4] = dose: 100.0 mg/kg/injection, schedule: Q01DX001 (ip), vehicle: saline with Tween-80
[5] = dose: 200.0 mg/kg/injection, schedule: Q01DX001 (ip), vehicle: saline with Tween-80
[6] = dose: 200.0 mg/kg/injection, schedule: Q01DX001 (ip), vehicle: carboxymethylcellulose (CMC)
[7] = dose: 400.0 mg/kg/injection, schedule: Q01DX001 (ip), vehicle: carboxymethylcellulose (CMC)
[8] = dose: 100.0 mg/kg/injection, schedule: Q04DX003 (ip), vehicle: Klucel (hydroxypropylcellulose) (HPC)
[9] = dose: 200.0 mg/kg/injection, schedule: Q04DX003 (ip), vehicle: Klucel (hydroxypropylcellulose) (HPC)
[10] = dose: 400.0 mg/kg/injection, schedule: Q04DX003 (ip), vehicle: Klucel (hydroxypropylcellulose) (HPC)

C[N+](C)(CC(=O)Nc1ccc(Oc2ccc(Cl)cc2)cc1)Cc1ccccc1
T/C (dose: 12.5 mg/kg/injection, schedule: Q01DX001 (ip), vehicle: Klucel (hydroxypropylcellulose) (HPC)): 104 % of control | T/C (dose: 12.5 mg/kg/injection, schedule: Q01DX009 (ip), vehicle: Klucel (hydroxypropylcellulose) (HPC)): 91 % of control | T/C (dose: 25.0 mg/kg/injection, schedule: Q01DX001 (ip), vehicle: Klucel (hydroxypropylcellulose) (HPC)): 101 % of control | T/C (dose: 25.0 mg/kg/injection, schedule: Q01DX009 (ip), vehicle: Klucel (hydroxypropylcellulose) (HPC)): 88 % of control | T/C (dose: 50.0 mg/kg/injection, schedule: Q01DX001 (ip), vehicle: Klucel (hydroxypropylcellulose) (HPC)): 93 % of control

CCCCOc1ccc(O)cc1
T/C (dose: 100.0 mg/kg/injection, schedule: Q04DX003 (ip), vehicle: other): 117 % of control | T/C (dose: 200.0 mg/kg/injection, schedule: Q04DX003 (ip), vehicle: other): 100 % of control | T/C (dose: 400.0 mg/kg/injection, schedule: Q04DX003 (ip), vehicle: other): 108 % of control

Nc1ccccc1CSc1nc2nc[nH]c2c(=O)[nH]1
T/C (dose: 5.0 mg/kg/injection, schedule: Q01DX009 (ip), vehicle: Klucel (hydroxypropylcellulose) (HPC)): 99 % of control | T/C (dose: 10.0 mg/kg/injection, schedule: Q01DX009 (ip), vehicle: Klucel (hydroxypropylcellulose) (HPC)): 97 % of control | T/C [1]: 103 % of control

Cc1cc(C(C(N)=O)c2ccccc2)ccc1N(CCCl)CCCl (centres undefined)
T/C (dose: 2.0 mg/kg/injection, schedule: Q01DX009 (ip), vehicle: carboxymethylcellulose (CMC)): 116 % of control | T/C (dose: 3.7 mg/kg/injection, schedule: Q01DX015 (ip), vehicle: carboxymethylcellulose (CMC)): 121 % of control | T/C (dose: 4.0 mg/kg/injection, schedule: Q01DX009 (ip), vehicle: carboxymethylcellulose (CMC)): 124 % of control | T/C (dose: 7.2 mg/kg/injection, schedule: Q04DX003 (ip), vehicle: acetone): 104 % of control | T/C [1]: 153 % of control | T/C (dose: 21.0 mg/kg/injection, schedule: Q04DX003 (ip), vehicle: acetone): 109 % of control and 121 % of control | T/C (dose: 21.0 mg/kg/injection, schedule: Q04DX003 (ip), vehicle: saline): 112 % of control | T/C (dose: 33.0 mg/kg/injection, schedule: Q04DX003 (ip), vehicle: saline): 118 % of control | T/C (dose: 37.5 mg/kg/injection, schedule: Q01DX009 (ip), vehicle: saline with Tween-80): 86 % of control | T/C (dose: 40.0 mg/kg/injection, schedule: Q01DX009 (ip), vehicle: Klucel (hydroxypropylcellulose) (HPC)): 101 % of control | T/C (dose: 45.0 mg/kg/injection, schedule: Q01DX015 (ip), vehicle: carboxymethylcellulose (CMC)): 95 % of control | T/C (dose: 49.0 mg/kg/injection, schedule: Q04DX003 (ip), vehicle: acetone): 120 % of control | T/C [2]: 114 % of control | T/C (dose: 50.0 mg/kg/injection, schedule: Q04DX003 (ip), vehicle: acetone): 123 % of control | T/C (dose: 50.0 mg/kg/injection, schedule: Q04DX003 (ip), vehicle: saline): 106 % of control | T/C (dose: 64.0 mg/kg/injection, schedule: Q01DX009 (ip), vehicle: carboxymethylcellulose (CMC)): 106 % of control | T/C (dose: 66.0 mg/kg/injection, schedule: Q01DX001 (ip), vehicle: saline): 116 % of control | T/C (dose: 66.0 mg/kg/injection, schedule: Q04DX003 (ip), vehicle: acetone): 112 % of control | T/C (dose: 88.8 mg/kg/injection, schedule: Q01DX001 (ip), vehicle: carboxymethylcellulose (CMC)): 123 % of control | T/C [3]: 112 % of control | T/C (dose: 100.0 mg/kg/injection, schedule: Q01DX001 (ip), vehicle: saline): 100 % of control | T/C (dose: 150.0 mg/kg/injection, schedule: Q04DX003 (ip), vehicle: acetone): 96 % of control | T/C (dose: 300.0 mg/kg/injection, schedule: Q01DX001 (ip), vehicle: carboxymethylcellulose (CMC)): 152 % of control

CCOC(=O)c1ccc(N=Cc2cnc3nc(NC(C)=O)[nH]c(=O)c3n2)cc1
T/C (dose: 100.0 mg/kg/injection, schedule: Q01DX001 (ip), vehicle: other): 103 % of control | T/C (dose: 200.0 mg/kg/injection, schedule: Q01DX001 (ip), vehicle: other): 96 % of control | T/C (dose: 400.0 mg/kg/injection, schedule: Q01DX001 (ip), vehicle: other): 103 % of control

CCCC1=NNC(=O)C1(Br)Br
T/C (dose: 10.0 mg/kg/injection, schedule: Q01DX001 (ip), vehicle: carboxymethylcellulose (CMC)): 97 % of control | T/C (dose: 20.0 mg/kg/injection, schedule: Q01DX001 (ip), vehicle: carboxymethylcellulose (CMC)): 91 % of control | T/C (dose: 40.0 mg/kg/injection, schedule: Q01DX001 (ip), vehicle: carboxymethylcellulose (CMC)): 92 % of control | T/C (dose: 80.0 mg/kg/injection, schedule: Q01DX001 (ip), vehicle: carboxymethylcellulose (CMC)): 97 % of control

Cc1ccccc1OCC(=O)O
T/C (dose: 50.0 mg/kg/injection, schedule: Q01DX009 (ip), vehicle: saline with Tween-80): 107 % of control | T/C (dose: 50.0 mg/kg/injection, schedule: Q01DX009 (ip), vehicle: saline): 107 % of control | T/C (dose: 100.0 mg/kg/injection, schedule: Q01DX009 (ip), vehicle: saline with Tween-80): 98 % of control | T/C (dose: 100.0 mg/kg/injection, schedule: Q01DX009 (ip), vehicle: saline): 98 % of control | T/C (dose: 100.0 mg/kg/injection, schedule: Q04DX003 (ip), vehicle: gum acacia): 98 % of control | T/C (dose: 200.0 mg/kg/injection, schedule: Q01DX009 (ip), vehicle: saline with Tween-80): 98 % of control | T/C (dose: 200.0 mg/kg/injection, schedule: Q01DX009 (ip), vehicle: saline): 98 % of control | T/C (dose: 200.0 mg/kg/injection, schedule: Q04DX003 (ip), vehicle: gum acacia): 94 % of control | T/C (dose: 400.0 mg/kg/injection, schedule: Q04DX003 (ip), vehicle: gum acacia): 93 % of control

CC1CCC2(C(=O)O)CCC3(C)C(=CCC4C5(C)CC(O)C(O)C(C)(C(=O)O)C5CCC43C)C2C1(C)O (centres undefined)
T/C (dose: 100.0 mg/kg/injection, schedule: Q01DX001 (ip), vehicle: alkali diluted with saline): 94 % of control | T/C [4]: 97 % of control | T/C (dose: 200.0 mg/kg/injection, schedule: Q01DX001 (ip), vehicle: alkali diluted with saline): 100 % of control | T/C [5]: 89 % of control

COc1cc(OC)c2c(=O)c3ccoc3n(C)c2c1OC
T/C [2]: 98 % of control | T/C [3]: 98 % of control | T/C [6]: 93 % of control | T/C [7]: 93 % of control

CC(C)(C)O[Si](OCC(F)(F)C(F)(F)C(F)(F)C(F)(F)C(F)(F)C(F)F)(OCC(F)(F)C(F)(F)C(F)(F)C(F)(F)C(F)(F)C(F)F)OC(C)(C)C
T/C [2]: 100 % of control | T/C [3]: 94 % of control | T/C [6]: 94 % of control | T/C [7]: 94 % of control

COc1nsc(N)n1
T/C [4]: 100 % of control | T/C [5]: 104 % of control | T/C (dose: 400.0 mg/kg/injection, schedule: Q01DX001 (ip), vehicle: saline with Tween-80): 91 % of control

CCOP(=O)(OCC)OCCSCC
T/C (dose: 75.0 mg/kg/injection, schedule: Q01DX001 (ip), vehicle: saline): 103 % of control | T/C (dose: 150.0 mg/kg/injection, schedule: Q01DX001 (ip), vehicle: saline): 102 % of control

Cc1ccc(N=Cc2cccc([N+](=O)[O-])c2)cc1
T/C (dose: 100.0 mg/kg/injection, schedule: Q01DX001 (ip), vehicle: Klucel (hydroxypropylcellulose) (HPC)): 100 % of control | T/C [8]: 98 % of control | T/C (dose: 200.0 mg/kg/injection, schedule: Q01DX001 (ip), vehicle: Klucel (hydroxypropylcellulose) (HPC)): 94 % of control | T/C [9]: 100 % of control | T/C (dose: 400.0 mg/kg/injection, schedule: Q01DX001 (ip), vehicle: Klucel (hydroxypropylcellulose) (HPC)): 91 % of control | T/C [10]: 103 % of control

CN(C)c1ccc(/C(=C(\c2ccccc2)c2ccc(N(C)C)cc2)c2ccccc2)cc1
T/C [8]: 90 % of control | T/C [9]: 93 % of control | T/C [10]: 89 % of control

CC1(C)Cc2ccccc2C(c2ccccn2)=N1
T/C [8]: 96 % of control | T/C [9]: 112 % of control | T/C [10]: 112 % of control

COc1ccc(C(=O)c2cccs2)cc1
T/C (dose: 50.0 mg/kg/injection, schedule: Q01DX009 (ip), vehicle: saline sonified): 101 % of control | T/C (dose: 100.0 mg/kg/injection, schedule: Q01DX009 (ip), vehicle: saline sonified): 104 % of control | T/C [8]: 97 % of control | T/C (dose: 200.0 mg/kg/injection, schedule: Q01DX009 (ip), vehicle: saline sonified): 102 % of control | T/C [9]: 94 % of control
